From ChEMBL document CHEMBL4393733 (Bioorg Med Chem, 2019)

Assays:
Carbonic anhydrase 2 = Carbonic anhydrase 2 (Homo sapiens, UniProt P00918); assay: Inhibition of human recombinant N-HA-tagged carbonic anhydrase 2 expressed in HEK293T cells using p-nitrophenyl acetate as substrate measured after 30 mins by colorimetric analysis
[1] = Inhibition of human recombinant N-His-tagged carbonic anhydrase 11 expressed in HEK293T cells using p-nitrophenyl acetate as substrate measured after 30 mins by colorimetric analysis

Structure (SMILES)	IC50 (Carbonic anhydrase 2) [nM]	IC50 [1] [nM]
NS(=O)(=O)Oc1ccc(-c2ccc3occc3c2)cc1	2600	1110
O=S(=O)(Oc1ccc(-c2ccc3occc3c2)cc1)c1ccc(F)cc1	140	1600
CCCS(=O)(=O)Oc1ccc(-c2ccc3occc3c2)cc1	1620	690
CN(C)S(=O)(=O)Oc1ccc(-c2ccc3sccc3c2)cc1	5820	2840
Cc1ccc(S(=O)(=O)Oc2ccc(-c3ccc4sccc4c3)cc2)cc1	3300	1770
CCCS(=O)(=O)Oc1ccc(-c2ccc3sccc3c2)cc1	310	7550
NS(=O)(=O)Oc1ccc(-c2ccc3sccc3c2)cc1	1320	240
Cc1ccc(S(=O)(=O)Oc2ccc(-c3ccc4occc4c3)cc2)cc1	500	280
O=S(=O)(Oc1ccc(-c2ccc3sccc3c2)cc1)c1ccc(F)cc1	2100	3100
CNS(=O)(=O)Oc1ccc(-c2ccc3sccc3c2)cc1	1210	520
CN(C)S(=O)(=O)Oc1ccc(-c2ccc3occc3c2)cc1	1230	1710
O=S(=O)(Oc1ccc(-c2ccc3sccc3c2)cc1)c1ccccc1	1490	2700
O=S(=O)(Oc1ccc(-c2ccc3occc3c2)cc1)c1ccccc1	410	850
CNS(=O)(=O)Oc1ccc(-c2ccc3occc3c2)cc1	1040	640
CCS(=O)(=O)Oc1ccc(-c2ccc3occc3c2)cc1	1600	130
CCS(=O)(=O)Oc1ccc(-c2ccc3sccc3c2)cc1	1300	140
CS(=O)(=O)Oc1ccc(-c2ccc3sccc3c2)cc1	1500	1010
CS(=O)(=O)Oc1ccc(-c2ccc3occc3c2)cc1	2130	2170
